Some test systems named below: UACC-62; Malme-3M; MCF7; SNB-75; OVCAR-4; DU-145; LOX IMVI; U-251; OVCAR-3; A549; CAKI-1; SNB-19; MDA-MB-231; T47D; OVCAR-5; HOP-62; PC-3; COLO 205; NCI-H522.
Common to all, as to assay: growth of human tumour cells (NCI), 48 h

Each structure is given as a SMILES string.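 Test compounds were applied to cells in 96-well plates for 48 hours at 5 doses. Here, GI50 denotes the concentration required for 50% inhibition of growth.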 Calls of active or inactive are those of the source. Cut-off read from the data, not from the text of the source: active = GI50 up to about 1.1 µM and inactive = higher.

In the case of `COc1c2c3c4c(c(OC)c(=O)c5c(O)cc(OC)c(c6c(OC)cc(O)c(c1=O)c63)c54)C(C(C)O)C2C(C)=O` (stereo not given), the GI50 was 0.483 µM (active) in the assay on UACC-62; 0.448 µM (active) in the assay on Malme-3M; 0.603 µM (active) with MCF7; 0.256 µM (active) in the assay with SNB-75; 0.46 µM (active) with OVCAR-4; 0.641 µM (active) in the assay on DU-145. Further, the GI50 was 0.244 µM (active) with LOX IMVI; 0.299 µM (active) in the assay with U-251; 0.338 µM (active) in the assay with OVCAR-3; 0.353 µM (active) with A549; 0.279 µM (active) in the assay with CAKI-1; 0.264 µM (active) with SNB-19. Further, the GI50 was 0.741 µM (active) in the assay with MDA-MB-231; 0.454 µM (active) in the assay on T47D; 0.603 µM (active) with OVCAR-5; 0.177 µM (active) with HOP-62; 0.26 µM (active) in the assay on PC-3; 0.571 µM (active) in the assay on COLO 205. Moreover, in the assay on NCI-H522, the GI50 was 0.171 µM (active).

For the compound `COc1cc2c3c(c1OC)C1(C=CC(=O)C=C1)CC3NCC2` (stereo not given), the GI50 is > 100 µM (inactive) in the assay on UACC-62; > 100 µM (inactive) in the assay with Malme-3M; > 100 µM (inactive) with MCF7; 80.5 µM (inactive) with SNB-75; > 100 µM (inactive) in the assay with OVCAR-4; > 100 µM (inactive) in the assay on DU-145. Also, the GI50 in the assay on LOX IMVI, in the assay with U-251, in the assay with OVCAR-3, with A549, with CAKI-1 and in the assay on SNB-19 was > 100 µM (inactive) in each case. Also, the GI50 in the assay on MDA-MB-231, in the assay on T47D, in the assay with OVCAR-5, with HOP-62, with PC-3 and in the assay with COLO 205 was > 100 µM (inactive) each time. In addition, the GI50 in the assay with NCI-H522 is 71 µM (inactive).

Consider `CC1=NN(c2cccc(S(=O)(=O)O)c2)C2(C1)SCC(=O)N2c1nc2ccccc2s1` (stereo not given), for which the GI50 with UACC-62, in the assay on Malme-3M, in the assay with MCF7, with SNB-75, with OVCAR-4 and in the assay with DU-145 was > 100 µM (inactive) throughout. The GI50 is 88.9 µM (inactive) with LOX IMVI; > 100 µM (inactive) with U-251; 83.2 µM (inactive) in the assay on OVCAR-3; > 100 µM (inactive) in the assay on A549; > 100 µM (inactive) in the assay on CAKI-1; > 100 µM (inactive) in the assay on SNB-19. In addition, the GI50 with MDA-MB-231, in the assay on T47D, in the assay with OVCAR-5, in the assay with HOP-62, with PC-3 and in the assay on COLO 205 was > 100 µM (inactive) each time. Further, in the assay on NCI-H522, the GI50 was > 100 µM (inactive).

Turning to `CC1NC(=O)c2c(-c3ccccc3)nn(-c3ccccc3)c2NC1=O` (stereo not given), the GI50 in the assay with UACC-62, in the assay on Malme-3M, in the assay on MCF7, in the assay on SNB-75, with OVCAR-4 and in the assay with DU-145 was > 100 µM (inactive) each time. Moreover, the GI50 in the assay on LOX IMVI was > 100 µM (inactive); in the assay on U-251, > 100 µM (inactive); in the assay on OVCAR-3 it was 37.4 µM (inactive); in the assay on A549, > 100 µM (inactive); in the assay on CAKI-1 it was > 100 µM (inactive); with SNB-19, > 100 µM (inactive). Besides, the GI50 in the assay on MDA-MB-231, in the assay with T47D, in the assay with OVCAR-5, in the assay on HOP-62, in the assay with PC-3 and with COLO 205 was > 100 µM (inactive) in each case. Moreover, the GI50 in the assay on NCI-H522 was > 100 µM (inactive).

As for `COC(=O)[C@@H]1CS(=O)(=O)C(C(C)C)N1C(C)=O` (stereo not given in full), the GI50 in the assay on UACC-62, with Malme-3M, in the assay with MCF7, with SNB-75, in the assay with OVCAR-4 and with DU-145 was > 100 µM (inactive) each time. Further, the GI50 in the assay with LOX IMVI, with U-251, in the assay with OVCAR-3, in the assay on A549, in the assay with CAKI-1 and in the assay on SNB-19 was > 100 µM (inactive) each time. For the same compound, the GI50 with MDA-MB-231, in the assay on T47D, in the assay on OVCAR-5, in the assay on HOP-62, with PC-3 and with COLO 205 was > 100 µM (inactive) each time. Further, the GI50 in the assay with NCI-H522 is > 100 µM (inactive).

With `CC(=O)c1[nH]c(NCc2ccccc2)c(C(=S)Nc2ccccc2)c1N`, the GI50 was 16.6 µM (inactive) in the assay with UACC-62; 19.7 µM (inactive) in the assay with Malme-3M; 19.3 µM (inactive) with MCF7; > 100 µM (inactive) with SNB-75; 26.4 µM (inactive) in the assay on OVCAR-4; 28.8 µM (inactive) in the assay on DU-145. Besides, the GI50 was 17.4 µM (inactive) in the assay on LOX IMVI; 17.3 µM (inactive) in the assay on U-251; 26.7 µM (inactive) with OVCAR-3; 27 µM (inactive) with A549; 31 µM (inactive) with CAKI-1; 34.3 µM (inactive) in the assay on SNB-19. Further, the GI50 in the assay with MDA-MB-231 was 15.1 µM (inactive); with T47D, 22 µM (inactive); with OVCAR-5 it was 24.3 µM (inactive); in the assay with HOP-62, 19.9 µM (inactive); in the assay with PC-3, 39.6 µM (inactive); in the assay on COLO 205 it was 28.4 µM (inactive). Also, the GI50 with NCI-H522 was 0.0383 µM (active).

`O=C(Nc1ccc2[nH]c(C(=O)N3CC(CCl)c4c3cc([N+](=O)[O-])c3ccccc43)cc2c1)c1cc2ccccc2o1` (stereo not given): the GI50 in the assay on UACC-62 was > 100 µM (inactive); in the assay on Malme-3M, > 100 µM (inactive); with MCF7 it was 23 µM (inactive); with SNB-75, > 56.6 µM (inactive); with OVCAR-4, > 100 µM (inactive); in the assay on DU-145 it was > 51.6 µM (inactive). In addition, the GI50 in the assay with LOX IMVI is > 51.2 µM (inactive); in the assay with U-251, > 54.3 µM (inactive); in the assay on OVCAR-3 it was > 100 µM (inactive); in the assay on A549, > 100 µM (inactive); in the assay on CAKI-1 it was > 100 µM (inactive); in the assay with SNB-19 it was > 100 µM (inactive). Besides, the GI50 was > 63 µM (inactive) in the assay on MDA-MB-231; > 55.2 µM (inactive) in the assay with T47D; > 100 µM (inactive) with OVCAR-5; > 100 µM (inactive) in the assay on HOP-62; > 50.6 µM (inactive) with PC-3; > 58.1 µM (inactive) with COLO 205. The GI50 in the assay on NCI-H522 is > 100 µM (inactive).

For the compound `COC(=O)C(Cc1ccccc1)NS(=O)(=O)c1ccc(-c2c3nc(c(-c4ccc(S(=O)(=O)NC(Cc5ccccc5)C(=O)OC)cc4)c4ccc([nH]4)c(-c4ccc(S(=O)(=O)NC(Cc5ccccc5)C(=O)OC)cc4)c4nc(c(-c5ccc(S(=O)(=O)NC(Cc6ccccc6)C(=O)OC)cc5)c5ccc2[nH]5)C=C4)C=C3)cc1` (stereo not given), the GI50 with UACC-62 was > 100 µM (inactive); with Malme-3M, > 100 µM (inactive); in the assay on MCF7, > 100 µM (inactive); in the assay on SNB-75 it was 12.5 µM (inactive); in the assay on OVCAR-4, > 100 µM (inactive); in the assay with DU-145 it was > 100 µM (inactive). Moreover, the GI50 was > 100 µM (inactive) in the assay on LOX IMVI; 28.1 µM (inactive) with U-251; > 100 µM (inactive) in the assay with OVCAR-3; > 100 µM (inactive) in the assay on A549; > 100 µM (inactive) in the assay with CAKI-1; 40.9 µM (inactive) in the assay with SNB-19. The GI50 was > 100 µM (inactive) in the assay on MDA-MB-231; > 100 µM (inactive) with T47D; > 100 µM (inactive) in the assay on OVCAR-5; 60.8 µM (inactive) with HOP-62; > 100 µM (inactive) in the assay with PC-3; > 100 µM (inactive) in the assay on COLO 205. In addition, the GI50 in the assay with NCI-H522 was > 100 µM (inactive).

For the compound `CC12CCCCC1=C(F)C(F)(F)S2` (stereo not given), the GI50 in the assay on UACC-62 is 42.4 µM (inactive); in the assay with Malme-3M it was 24.4 µM (inactive); with MCF7, 34.4 µM (inactive); in the assay with SNB-75, > 70.6 µM (inactive); in the assay on OVCAR-4 it was 48.3 µM (inactive); in the assay with DU-145, > 89.1 µM (inactive). The GI50 in the assay on LOX IMVI was 31.8 µM (inactive); with U-251, 98.6 µM (inactive); in the assay on OVCAR-3 it was 19.7 µM (inactive); with A549 it was > 79.3 µM (inactive); with CAKI-1 it was 21.5 µM (inactive); in the assay on SNB-19, > 100 µM (inactive). Also, the GI50 was 83.9 µM (inactive) with MDA-MB-231; 26.7 µM (inactive) in the assay on T47D; 62.5 µM (inactive) in the assay with OVCAR-5; 63.8 µM (inactive) in the assay with HOP-62; 40.7 µM (inactive) in the assay on PC-3; 15.1 µM (inactive) in the assay on COLO 205. In addition, the GI50 in the assay with NCI-H522 is 21.5 µM (inactive).

With `CC(C)(C)OC(=O)c1ccc(NCC2=C(Br)C(=O)C=CC2=O)cc1`, the GI50 was 16.6 µM (inactive) with UACC-62; 14.9 µM (inactive) with Malme-3M; 19.3 µM (inactive) in the assay with MCF7; 39.5 µM (inactive) in the assay with SNB-75; 14.1 µM (inactive) with OVCAR-4; 35.7 µM (inactive) in the assay on DU-145. Moreover, the GI50 with LOX IMVI is 14.7 µM (inactive); in the assay on U-251 it was 22.3 µM (inactive); in the assay on OVCAR-3, 10.6 µM (inactive); in the assay on A549, 57.8 µM (inactive); with CAKI-1 it was 11.6 µM (inactive); in the assay on SNB-19, > 54.7 µM (inactive). Besides, the GI50 with MDA-MB-231 was 19.1 µM (inactive); in the assay with T47D it was 17.5 µM (inactive); in the assay on OVCAR-5 it was 23.1 µM (inactive); with HOP-62, 37 µM (inactive); with PC-3 it was 27.4 µM (inactive); in the assay with COLO 205, 18.2 µM (inactive). The GI50 in the assay with NCI-H522 was 4.47 µM (inactive).

The record behind these values is ChEMBL document CHEMBL1201862, “PubChem BioAssay data set” (2004).
